Target: T1, CETP (Homo sapiens, UniProt P11597)
T1 construct: from tissue; host or cells: human plasma from healthy men
T1 sequence (P11597 18-493): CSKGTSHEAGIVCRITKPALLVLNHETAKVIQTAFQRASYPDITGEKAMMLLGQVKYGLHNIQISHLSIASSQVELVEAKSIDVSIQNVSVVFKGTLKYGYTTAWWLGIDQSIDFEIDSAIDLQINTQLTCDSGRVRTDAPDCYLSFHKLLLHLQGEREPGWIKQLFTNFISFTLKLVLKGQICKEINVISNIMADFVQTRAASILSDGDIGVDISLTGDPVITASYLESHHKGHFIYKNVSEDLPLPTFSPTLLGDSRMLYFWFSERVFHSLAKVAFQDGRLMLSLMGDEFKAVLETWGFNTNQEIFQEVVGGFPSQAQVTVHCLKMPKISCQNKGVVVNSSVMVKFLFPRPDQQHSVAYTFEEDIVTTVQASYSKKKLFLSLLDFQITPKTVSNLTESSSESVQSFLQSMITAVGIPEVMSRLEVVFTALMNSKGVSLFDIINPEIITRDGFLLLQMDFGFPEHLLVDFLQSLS
Experiment: Inhibitory activity against CETP in human plasma (Roar CETP activity kit, fluorescence)
Type: biochemical
Conditions: plasma from healthy men diluted 1:10 in assay buffer, 37° C., 3 hrs, fluorescence 465/535 nm; read-out: IC50, Inhibition of CETP Activity in Human Plasma
Protocol: A CETP activity kit (#RB-CETP) was purchased from Roar […], Inc. A donor and an acceptor (each, 4 ul), a 10× assay buffer (177 ul), and each of dilutions of test compounds in dimethylsulfoxide (DMSO, Sigma-Aldrich) (0.01 nM˜10000 nM) were added to each well of black round-bottom 96-well plates (Corning #3792). Plasma samples from healthy men were diluted in the assay buffer (1:10=plasma:assay buffer), and added to each well. The plates were sealed with a sealing film (Sigma-Aldrich, #Z369659), and incubated in a 37° C. incubator microplate shaker (#SLST-3, Seolin Bio) for 3 hrs. After removal of the sealing film, fluorescence was read on Spectra Max Gemini EM (Molecular devices) with an excitation wavelength of 465 nm and an emission wavelength of 535 nm. Measurements were calculated according to the following formula. Calculated value=(Fluorescence Intensity with both compound and plasma−Fluorescence Intensity with compound but without plasma)/(Fluorescence Intensity with plasma but without compound−Fluorescence Intensity with neither compound nor plasma)
From the calculated value, a sigmoidal curve (y=start+(end-start)x^n/k^n+x^n) was drawn using Origin Software (OriginLab Corporation, ver. 8.0724) to obtain IC50 values.

Question: For C[C@H]1[C@@H](c2cc(C(F)(F)F)cc(C(F)(F)F)c2)OC(=O)N1Cc1cc(C(F)(F)F)cnc1N(C)C1CCOC1 (stereo partly drawn) [Example 1, (4S,5R)-5-[3,5-bis(trifluoromethyl)phenyl]-4-methyl-3-[(2-(methyl(tetrahydrofuran-3-yl)amino)-5-(trifluoromethyl)pyridin-3-yl)methyl]-oxazolidin-2-one], which IC50 is on record?
Answer: Its IC50 is 112 nM.

Question: Which IC50 does the source give for CCN(c1ncc(C(F)(F)F)cc1CN1C(=O)O[C@H](c2cc(C(F)(F)F)cc(C(F)(F)F)c2)[C@@H]1C)C1CCOC1 (stereo partly drawn) [Example 2, (4S,5R)-5-[3,5-bis(trifluoromethyl)phenyl]-4-methyl-3-{(2-[ethyl(tetrahydrofuran-3-yl)amino]-5-(trifluoromethyl)pyridin-3-yl)methyl}-oxazolidin-2-one] here?
Answer: Its IC50 is 143 nM.

Question: For CCN(c1ncc(C(F)(F)F)cc1CN1C(=O)O[C@H](c2cc(C(F)(F)F)cc(C(F)(F)F)c2)[C@@H]1C)C1CCOCC1 [Example 7, (4S,5R)-5-[3,5-bis(trifluoromethyl)phenyl]-4-methyl-3-({[2-(ethyl)(tetrahydro-2H-pyran-4-yl)amino]-5-(trifluoromethyl)pyridin-3-yl}methyl)-oxazolidin-2-one], which IC50 is on record?
Answer: Its IC50 is 6.3 nM.

Question: With CCCN(c1ncc(C(F)(F)F)cc1CN1C(=O)O[C@H](c2cc(C(F)(F)F)cc(C(F)(F)F)c2)[C@@H]1C)C1CCOCC1 [Example 8, (4S,5R)-5-[3,5-bis(trifluoromethyl)phenyl]-4-methyl-3-({[2-(propyl)(tetrahydro-2H-pyran-4-yl)amino]-5-(trifluoromethyl)pyridin-3-yl}methyl)-oxazolidin-2-one] as the compound, how does the IC50 read?
Answer: Its IC50 is 14 nM.

Question: How did the IC50 turn out when CCCCN(c1ncc(C(F)(F)F)cc1CN1C(=O)O[C@H](c2cc(C(F)(F)F)cc(C(F)(F)F)c2)[C@@H]1C)C1CCOCC1 [Example 9, (4S,5R)-5-[3,5-bis(trifluoromethyl)phenyl]-4-methyl-3-({[2-(butyl)(tetrahydro-2H-pyran-4-yl)amino]-5-(trifluoromethyl)pyridin-3-yl}methyl)-oxazolidin-2-one] was run?
Answer: Its IC50 is 68 nM.

Question: C[C@H]1[C@@H](c2cc(C(F)(F)F)cc(C(F)(F)F)c2)OC(=O)N1Cc1cc(C(F)(F)F)cnc1N(C1CCOCC1)C1CC1 [Example 10] was tested. Which IC50 did it give?
Answer: The IC50 was 60 nM.

Question: For C[C@H]1[C@@H](c2cc(C(F)(F)F)cc(C(F)(F)F)c2)OC(=O)N1Cc1cc(C(F)(F)F)cnc1N(C1CCC1)C1CCOCC1 [Example 11, (4S,5R)-5-[3,5-bis(trifluoromethyl)phenyl]-4-methyl-3-({[2-(cyclobutyl)(tetrahydro-2H-pyran-4-yl)amino]-5-(trifluoro)methylpyridin-3-yl}methyl)-oxazolidin-2-one], which IC50 is on record?
Answer: The IC50 was 317 nM.

Question: For CCN(c1ncccc1CN1C(=O)O[C@H](c2cc(C(F)(F)F)cc(C(F)(F)F)c2)[C@@H]1C)C1CCOCC1 [Example 14, (4S,5R)-5-[3,5-Bis(trifluoromethyl)phenyl]-4-methyl-3-({[2-ethyl(tetrahydro-2H-pyran-4-yl)amino]-pyridin-3-yl}methyl)-oxazolidin-2-one], which IC50 is on record?
Answer: The IC50 was 98 nM.

Question: With CCN(c1ncc(C(F)(F)F)cc1CN1C(=O)O[C@H](c2cc(C(F)(F)F)cc(C(F)(F)F)c2)[C@@H]1C)C1CCCOC1 (stereo partly drawn) [Example 15, (4S,5R)-5-[3,5-bis(trifluoromethyl)phenyl]-4-methyl-3-({[2-ethyl(tetrahydro-2H-pyran-3-yl)amino]-5-(trifluoromethyl)pyridin-3-yl}methyl)-oxazolidin-2-one] as the compound, how does the IC50 read?
Answer: The IC50 was 10 nM.

Question: CCN(c1ncc(F)cc1CN1C(=O)O[C@H](c2cc(C(F)(F)F)cc(C(F)(F)F)c2)[C@@H]1C)C1CCOCC1 [Example 16, (4S,5R)-5-[3,5-Bis(trifluoromethyl)phenyl]-4-methyl-3-({2-[ethyl(tetrahydro-2H-pyran-4-yl)amino]-5-fluoropyridin-3-yl}methyl)-oxazolidin-2-one] was tested. Which IC50 did it give?
Answer: Its IC50 is 75 nM.

Question: How did the IC50 turn out when C[C@H]1[C@@H](c2cc(C(F)(F)F)cc(C(F)(F)F)c2)OC(=O)N1Cc1cc(C(F)(F)F)cnc1N(CC(=O)OC(C)(C)C)C1CCOCC1 [Example 17, t-butyl 2-([3-({(4S,5R)-5-[3,5-bis(trifluoromethyl)phenyl]-4-methyl-2-oxo-oxazolidin-3-yl}methyl)-5-(trifluoromethyl)pyridin-2-yl]-(tetrahydro-2H-pyran-4-yl)amino)-acetate] was run?
Answer: The IC50 was 379 nM.

Question: C[C@H]1[C@@H](c2cc(C(F)(F)F)cc(C(F)(F)F)c2)OC(=O)N1Cc1cc(C(F)(F)F)cnc1N(CCO)C1CCOCC1 [Example 18, (4S,5R)-5-[3,5-Bis(trifluoromethyl)phenyl]-4-methyl-3-({[2-(hydroxyethyl)(tetrahydro-2H-pyran-4-yl)amino]-5-(trifluoromethyl)pyridin-3-yl}methyl)-oxazolidin-2-one] was tested. Which IC50 did it give?
Answer: The IC50 was 91 nM.

Question: With C[C@H]1[C@@H](c2cc(C(F)(F)F)cc(C(F)(F)F)c2)OC(=O)N1Cc1cc(C(F)(F)F)cnc1N(C)C1CCCOCC1 (stereo partly drawn) [Example 20, (4S,5R)-5-[3,5-bis(trifluoromethyl)phenyl]-4-methyl-3-({[2-(methyl)(oxepen-4-yl)amino]-5-(trifluoromethyl)pyridin-3-yl}methyl)-oxazolidin-2-one] as the compound, how does the IC50 read?
Answer: The IC50 was 59 nM.

Question: For CCN(c1ncc(C(F)(F)F)cc1CN1C(=O)O[C@H](c2cc(C(F)(F)F)cc(C(F)(F)F)c2)[C@@H]1C)C1CCC2(CC1)OCCO2 [Example 21, (4S,5R)-5-[3,5-bis(trifluoromethyl)phenyl]-4-methyl-3-({[2-(ethyl)(1,4-dioxaspiro[4.5]decan-8-yl)amino]-5-trifluoromethylpyridin-3-yl}methyl)-oxazolidin-2-one], which IC50 is on record?
Answer: Its IC50 is 114 nM.

Question: For CCN(c1ncc(C(F)(F)F)cc1CN1C(=O)O[C@H](c2cc(C(F)(F)F)cc(C(F)(F)F)c2)[C@@H]1C)C1CCC(=O)CC1 [Example 22, (4S,5R)-5-[3,5-bis(trifluoromethyl)phenyl]-4-methyl-3-({[2-(ethyl)(4-oxocyclohexyl)amino]-5-(trifluoromethyl)pyridin-3-yl}methyl)-oxazolidin-2-one], which IC50 is on record?
Answer: Its IC50 is 10 nM.

Question: CCNC1CCC(N(CC)c2ncc(C(F)(F)F)cc2CN2C(=O)O[C@H](c3cc(C(F)(F)F)cc(C(F)(F)F)c3)[C@@H]2C)CC1 (stereo partly drawn) [Example 23, (4S,5R)-5-[3,5-bis(trifluoromethyl)phenyl]-4-methyl-3-({[2-(ethyl)(4-ethylaminocyclohexyl)amino]-5-(trifluoromethyl)pyridin-3-yl}methyl)-oxazolidin-2-one] was tested. Which IC50 did it give?
Answer: Its IC50 is 44.4 nM.

Question: CCN(c1ncc(C(F)(F)F)cc1CN1C(=O)O[C@H](c2cc(C(F)(F)F)cc(C(F)(F)F)c2)[C@@H]1C)C1CCC(CC(=O)OC)CC1 (stereo partly drawn) [Example 24, methyl 2-(4-{[3-({(4S,5R)-5-[3,5-bis(trifluoromethyl)phenyl]-4-methyl-2-oxo-oxazolidin-3-yl}methyl)-5-(trifluoromethyl)pyridin-2-yl](ethyl)amino}cyclohexyl)acetate] was tested. Which IC50 did it give?
Answer: Its IC50 is 185 nM.

Question: How did the IC50 turn out when CCN(c1ncc(C(F)(F)F)cc1CN1C(=O)O[C@H](c2cc(C(F)(F)F)cc(C(F)(F)F)c2)[C@@H]1C)C1CCSCC1 [Example 25, (4S,5R)-5-[3,5-bis(trifluoromethyl)phenyl]-4-methyl-3-({[2-(ethyl)(tetrahydro-2H-thiopyran-4-yl)amino]-5-(trifluoromethyl)pyridin-3-yl}methyl)-oxazolidin-2-one] was run?
Answer: The IC50 was 108 nM.

Question: Which IC50 does the source give for CCN(c1ncc(C(F)(F)F)cc1CN1C(=O)O[C@H](c2cc(C(F)(F)F)cc(C(F)(F)F)c2)[C@@H]1C)C1CC[S+]([O-])CC1 (stereo partly drawn) [Example 26, (4S,5R)-5-[3,5-bis(trifluoromethyl)phenyl]-4-methyl-3-({[2-(ethyl)(1-oxidotetrahydro-2H-thiopyran-4-yl)amino]-5-(trifluoromethyl)pyridin-3-yl}methyl)-oxazolidin-2-one] here?
Answer: The IC50 was 100 nM.

Question: CCN(c1ncc(C(F)(F)F)cc1CN1C(=O)O[C@H](c2cc(C(F)(F)F)cc(C(F)(F)F)c2)[C@@H]1C)C1CCN(C(=O)OC(C)(C)C)CC1 [Example 27, t-butyl 4-{[3-({(4S,5R)-5-[3,5-bis(trifluoromethyl)phenyl]-4-methyl-2-oxo-oxazolidin-3-yl}methyl)-5-(trifluoromethyl)pyridin-2-yl](ethyl)amino}piperidine-1-carboxylate] was tested. Which IC50 did it give?
Answer: Its IC50 is 430 nM.

Question: Which IC50 does the source give for CCN(c1ncc(C(F)(F)F)cc1CN1C(=O)O[C@H](c2cc(C(F)(F)F)cc(C(F)(F)F)c2)[C@@H]1C)C1CCN(C)CC1 [Example 29, (4S,5R)-5-[3,5-bis(trifluoromethyl)phenyl]-4-methyl-3-({[2-(ethyl)(1-methylpiperidin-4-yl)amino]-5-(trifluoromethyl)pyridin-3-yl}methyl)-oxazolidin-2-one] here?
Answer: Its IC50 is 540 nM.

Question: With CCCN1CCC(N(CC)c2ncc(C(F)(F)F)cc2CN2C(=O)O[C@H](c3cc(C(F)(F)F)cc(C(F)(F)F)c3)[C@@H]2C)CC1 [Example 31] as the compound, how does the IC50 read?
Answer: Its IC50 is 108 nM.

From patent publication US9533977B2, “Oxazolidinone derivative as CETP inhibitor, its preparation method, and pharmaceutical composition comprising the same” (DONG-A ST CO., LTD., priority 2013, dated 2017)
